Reference: the supplement of paper PMC10307832

How the values were obtained:
Assay in all cases: relative viability (nuclei count vs DMSO), 5 days (fraction); higher = more cells survive
201T = tested on: 201T
Procedure, shortened: (§1)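 Lung cancer cell lines in 1536-well plates were dosed by pin tool the day after seeding, either with one drug alone or with a fixed anchor-drug dose plus five library-drug doses (not always all listed) in √10 steps. After 5 days, cells were fixed and their nuclei stained in one step (final 0.05% Triton X-100, 1% formaldehyde, 1 ug/ml Hoechst), then counted on 4× images. Relative viability is the nuclei count in treated wells divided by that in vehicle wells. Values are medians of duplicate plates.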

EPLC-272H = tested on: EPLC-272H
Procedure, shortened: as §1

H3255 = tested on: H3255
Procedure, shortened: as §1

LCLC-103H = tested on: LCLC-103H
Procedure, shortened: as §1

LOU-NH91 = tested on: LOU-NH91
Procedure, shortened: as §1

NCI-H1355 = tested on: NCI-H1355
Procedure, shortened: as §1

NCI-H1651 = tested on: NCI-H1651
Procedure, shortened: as §1

NCI-H1666 = tested on: NCI-H1666
Procedure, shortened: as §1

NCI-H1734 = tested on: NCI-H1734
Procedure, shortened: as §1

NCI-H1792 = tested on: NCI-H1792
Procedure, shortened: as §1

NCI-H1793 = tested on: NCI-H1793
Procedure, shortened: as §1

NCI-H1915 = tested on: NCI-H1915
Procedure, shortened: as §1

NCI-H1944 = tested on: NCI-H1944
Procedure, shortened: as §1

NCI-H1975 = tested on: NCI-H1975
Procedure, shortened: as §1

NCI-H2023 = tested on: NCI-H2023
Procedure, shortened: as §1

NCI-H2342 = tested on: NCI-H2342
Procedure, shortened: as §1

NCI-H2405 = tested on: NCI-H2405
Procedure, shortened: as §1

NCI-H441 = tested on: NCI-H441
Procedure, shortened: as §1

NCI-H647 = tested on: NCI-H647
Procedure, shortened: as §1

RERF-LC-KJ = tested on: RERF-LC-KJ
Procedure, shortened: as §1

SK-LU-1 = tested on: SK-LU-1
Procedure, shortened: as §1

UMC-11 = tested on: UMC-11
Procedure, shortened: as §1

Structure (SMILES): COCC1(CO)C(=O)C2CCN1CC2 (stereo not given) [PRIMA-1MET] + COc1cccc2cc(-c3nc([C@H]4CC[C@H](C(=O)O)CC4)n4ncnc(N)c34)[nH]c12 [OSI-027] (partner 0.5 µM)
- relative viability (201T; first compound 0.2 µM): 0.82
- relative viability (201T; first compound 0.6325 µM): 0.702
- relative viability (201T; first compound 2 µM): 0.591
- relative viability (201T; first compound 6.325 µM): 0.759
- relative viability (201T; first compound 20 µM): 0.747
- relative viability (EPLC-272H; first compound 2 µM): 0.235
- relative viability (EPLC-272H; first compound 6.325 µM): 0.27
- relative viability (EPLC-272H; first compound 20 µM): 0.0689
- relative viability (H3255; first compound 0.2 µM): 0.642
- relative viability (H3255; first compound 0.6325 µM): 0.629
- relative viability (H3255; first compound 2 µM): 0.562
- relative viability (H3255; first compound 6.325 µM): 0.658
- relative viability (H3255; first compound 20 µM): 0.498
- relative viability (LCLC-103H; first compound 0.2 µM): 0.547
- relative viability (LCLC-103H; first compound 0.6325 µM): 0.391
- relative viability (LCLC-103H; first compound 2 µM): 0.399
- relative viability (LCLC-103H; first compound 6.325 µM): 0.481
- relative viability (LCLC-103H; first compound 20 µM): 0.409
- relative viability (LOU-NH91; first compound 0.2 µM): 0.806
- relative viability (LOU-NH91; first compound 0.6325 µM): 0.719
- relative viability (LOU-NH91; first compound 2 µM): 0.589
- relative viability (LOU-NH91; first compound 6.325 µM): 0.662
- relative viability (LOU-NH91; first compound 20 µM): 0.468
- relative viability (NCI-H1355; first compound 0.2 µM): 0.361
- relative viability (NCI-H1355; first compound 0.6325 µM): 0.353
- relative viability (NCI-H1355; first compound 2 µM): 0.316
- relative viability (NCI-H1355; first compound 6.325 µM): 0.389
- relative viability (NCI-H1355; first compound 20 µM): 0.406
- relative viability (NCI-H1651; first compound 0.2 µM): 0.801
- relative viability (NCI-H1651; first compound 0.6325 µM): 0.756
- relative viability (NCI-H1651; first compound 2 µM): 0.636
- relative viability (NCI-H1651; first compound 6.325 µM): 0.669
- relative viability (NCI-H1651; first compound 20 µM): 0.701
- relative viability (NCI-H1666; first compound 0.2 µM): 0.791
- relative viability (NCI-H1666; first compound 0.6325 µM): 0.87
- relative viability (NCI-H1666; first compound 2 µM): 0.827
- relative viability (NCI-H1666; first compound 6.325 µM): 0.826
- relative viability (NCI-H1666; first compound 20 µM): 0.714
- relative viability (NCI-H1734; first compound 0.2 µM): 0.709
- relative viability (NCI-H1734; first compound 0.6325 µM): 0.508
- relative viability (NCI-H1734; first compound 2 µM): 0.413
- relative viability (NCI-H1734; first compound 6.325 µM): 0.532
- relative viability (NCI-H1734; first compound 20 µM): 0.0554
- relative viability (NCI-H1792; first compound 0.2 µM): 0.683
- relative viability (NCI-H1792; first compound 0.6325 µM): 0.693
- relative viability (NCI-H1792; first compound 2 µM): 0.635
- relative viability (NCI-H1792; first compound 6.325 µM): 0.734
- relative viability (NCI-H1792; first compound 20 µM): 0.802
- relative viability (NCI-H1793; first compound 0.2 µM): 0.255
- relative viability (NCI-H1793; first compound 0.6325 µM): 0.221
- relative viability (NCI-H1793; first compound 6.325 µM): 0.298
- relative viability (NCI-H1793; first compound 20 µM): 0.276
- relative viability (NCI-H1915; first compound 0.2 µM): 0.475
- relative viability (NCI-H1915; first compound 0.6325 µM): 0.582
- relative viability (NCI-H1915; first compound 6.325 µM): 0.443
- relative viability (NCI-H1915; first compound 20 µM): 0.578
- relative viability (NCI-H1944; first compound 0.2 µM): 0.408
- relative viability (NCI-H1944; first compound 0.6325 µM): 0.359
- relative viability (NCI-H1944; first compound 2 µM): 0.3
- relative viability (NCI-H1944; first compound 6.325 µM): 0.409
- relative viability (NCI-H1944; first compound 20 µM): 0.393
- relative viability (NCI-H1975; first compound 0.2 µM): 0.879
- relative viability (NCI-H1975; first compound 0.6325 µM): 0.62
- relative viability (NCI-H1975; first compound 2 µM): 0.604
- relative viability (NCI-H1975; first compound 6.325 µM): 0.777
- relative viability (NCI-H1975; first compound 20 µM): 0.738
- relative viability (NCI-H2023; first compound 0.2 µM): 0.453
- relative viability (NCI-H2023; first compound 0.6325 µM): 0.366
- relative viability (NCI-H2023; first compound 2 µM): 0.363
- relative viability (NCI-H2023; first compound 6.325 µM): 0.4
- relative viability (NCI-H2023; first compound 20 µM): 0.241
- relative viability (NCI-H2342; first compound 0.2 µM): 0.598
- relative viability (NCI-H2342; first compound 0.6325 µM): 0.59
- relative viability (NCI-H2342; first compound 2 µM): 0.483
- relative viability (NCI-H2342; first compound 6.325 µM): 0.595
- relative viability (NCI-H2342; first compound 20 µM): 0.565
- relative viability (NCI-H2405; first compound 0.2 µM): 0.501
- relative viability (NCI-H2405; first compound 0.6325 µM): 0.653
- relative viability (NCI-H2405; first compound 6.325 µM): 0.591
- relative viability (NCI-H2405; first compound 20 µM): 0.499
- relative viability (NCI-H441; first compound 0.2 µM): 0.593
- relative viability (NCI-H441; first compound 0.6325 µM): 0.629
- relative viability (NCI-H441; first compound 2 µM): 0.663
- relative viability (NCI-H441; first compound 6.325 µM): 0.611
- relative viability (NCI-H441; first compound 20 µM): 0.313
- relative viability (NCI-H647; first compound 0.2 µM): 0.684
- relative viability (NCI-H647; first compound 0.6325 µM): 0.837
- relative viability (NCI-H647; first compound 2 µM): 0.508
- relative viability (NCI-H647; first compound 6.325 µM): 0.56
- relative viability (NCI-H647; first compound 20 µM): 0.105
- relative viability (RERF-LC-KJ; first compound 0.2 µM): 0.56
- relative viability (RERF-LC-KJ; first compound 0.6325 µM): 0.625
- relative viability (RERF-LC-KJ; first compound 2 µM): 0.54
- relative viability (RERF-LC-KJ; first compound 6.325 µM): 0.662
- relative viability (RERF-LC-KJ; first compound 20 µM): 0.588
- relative viability (SK-LU-1; first compound 0.2 µM): 0.321
- relative viability (SK-LU-1; first compound 0.6325 µM): 0.375
- relative viability (SK-LU-1; first compound 2 µM): 0.256
- relative viability (SK-LU-1; first compound 6.325 µM): 0.338
- relative viability (SK-LU-1; first compound 20 µM): 0.0616
- relative viability (UMC-11; first compound 0.2 µM): 0.478
- relative viability (UMC-11; first compound 0.6325 µM): 0.46
- relative viability (UMC-11; first compound 2 µM): 0.432
- relative viability (UMC-11; first compound 6.325 µM): 0.485
- relative viability (UMC-11; first compound 20 µM): 0.444
